From PubChem BioAssay AID330 (DTP/NCI, 2004)
Several values for one entry are separate records, joined by “and”; a condition that tells them apart may be missing. Equal values may be shown once. Toxic doses and inconclusive results are not listed.

System: P388 leukemia ip, CD2F1 mice, survival T/C
Experiment: NCI In Vivo Anticancer Drug Screen. Data for tumor model P388 Leukemia (intraperitoneal) in CD2F1 (CDF1) mice
Details: endpoint: median survival time, higher = longer survival
Summary of the method: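 Mice carrying the transplanted tumor received test compound or vehicle. Survival was recorded in each group, and the value is the treated-group measurement divided by that of the vehicle-treated control group.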

[1] = dose: 50.0 mg/kg/injection, schedule: Q01DX009 (ip), vehicle: saline with Tween-80
[2] = dose: 100.0 mg/kg/injection, schedule: Q01DX009 (ip), vehicle: saline with Tween-80
[3] = dose: 50.0 mg/kg/injection, schedule: Q01DX005 (ip), vehicle: Klucel (hydroxypropylcellulose) (HPC)
[4] = dose: 100.0 mg/kg/injection, schedule: Q01DX005 (ip), vehicle: Klucel (hydroxypropylcellulose) (HPC)

C=C1C(=O)C23C(OC(=O)c4ccccc4)C1CCC2C12COC3(O)C(O)C1C(C)(C)CCC2O (stereo not drawn)
T/C (dose: 3.75 mg/kg/injection, schedule: Q01DX009 (ip), vehicle: saline with Tween-80): 103 % of control and 107 % of control and 110 % of control | T/C (dose: 7.5 mg/kg/injection, schedule: Q01DX009 (ip), vehicle: saline with Tween-80): 102 % of control and 112 % of control and 120 % of control | T/C (dose: 15.0 mg/kg/injection, schedule: Q01DX009 (ip), vehicle: saline with Tween-80): 100 % of control and 118 % of control and 119 % of control | T/C (dose: 30.0 mg/kg/injection, schedule: Q01DX009 (ip), vehicle: saline with Tween-80): 109 % of control and 115 % of control

CCCCNC1CC(OC2CC(O)(C(C)=O)Cc3c(O)c4c(c(O)c32)C(=O)c2c(OC)cccc2C4=O)OC(C)C1O (stereo not drawn)
T/C (dose: 2.0 mg/kg/injection, schedule: Q01DX009 (ip), vehicle: water): 102 % of control | T/C (dose: 4.0 mg/kg/injection, schedule: Q01DX009 (ip), vehicle: water): 100 % of control | T/C (dose: 8.0 mg/kg/injection, schedule: Q01DX009 (ip), vehicle: water): 118 % of control | T/C (dose: 16.0 mg/kg/injection, schedule: Q01DX009 (ip), vehicle: water): 118 % of control

NC(N)=NC(N)=NCCS(=O)(=O)O
T/C (dose: 50.0 mg/kg/injection, schedule: Q01DX005 (ip), vehicle: saline): 110 % of control | T/C (dose: 100.0 mg/kg/injection, schedule: Q01DX005 (ip), vehicle: saline): 110 % of control | T/C (dose: 200.0 mg/kg/injection, schedule: Q01DX005 (ip), vehicle: saline): 117 % of control

C[CH2][Sn]1([CH2]C)[O]C2C(OC)OC3COC(c4ccccc4)OC3C2[O]1 (stereo not drawn)
T/C (dose: 1.56 mg/kg/injection, schedule: Q04DX003 (ip), vehicle: saline): 101 % of control and 107 % of control | T/C (dose: 3.12 mg/kg/injection, schedule: Q04DX003 (ip), vehicle: saline): 104 % of control and 116 % of control | T/C (dose: 6.25 mg/kg/injection, schedule: Q04DX003 (ip), vehicle: saline): 101 % of control and 116 % of control and 117 % of control | T/C (dose: 12.5 mg/kg/injection, schedule: Q04DX003 (ip), vehicle: saline): 104 % of control and 116 % of control

CC12C(=O)C(Br)C1CC2S(=O)(=O)O (stereo not drawn)
T/C (dose: 25.0 mg/kg/injection, schedule: Q04DX002 (ip), vehicle: saline): 97 % of control | T/C (dose: 50.0 mg/kg/injection, schedule: Q04DX002 (ip), vehicle: saline): 95 % of control | T/C (dose: 100.0 mg/kg/injection, schedule: Q04DX002 (ip), vehicle: saline): 98 % of control | T/C (dose: 200.0 mg/kg/injection, schedule: Q04DX002 (ip), vehicle: saline with Tween-80): 96 % of control | T/C (dose: 400.0 mg/kg/injection, schedule: Q04DX002 (ip), vehicle: saline with Tween-80): 99 % of control

C1CC[C@]2([C@]34CCCC[C@H]3O4)O[C@@H]2C1
T/C (dose: 60.0 mg/kg/injection, schedule: Q01DX005 (ip), vehicle: Klucel (hydroxypropylcellulose) (HPC)): 99 % of control | T/C (dose: 120.0 mg/kg/injection, schedule: Q01DX005 (ip), vehicle: Klucel (hydroxypropylcellulose) (HPC)): 100 % of control | T/C (dose: 240.0 mg/kg/injection, schedule: Q01DX005 (ip), vehicle: Klucel (hydroxypropylcellulose) (HPC)): 104 % of control

CC(C)CCc1c(N)nc(N)[nH]c1=O
T/C (dose: 12.5 mg/kg/injection, schedule: Q01DX005 (ip), vehicle: saline with Tween-80): 101 % of control | T/C (dose: 25.0 mg/kg/injection, schedule: Q01DX005 (ip), vehicle: saline with Tween-80): 97 % of control | T/C (dose: 50.0 mg/kg/injection, schedule: Q01DX005 (ip), vehicle: saline with Tween-80): 97 % of control

O=c1oc2c(Br)cccc2cc1-c1ccc(Br)c2ccccc12
T/C (dose: 50.0 mg/kg/injection, schedule: Q01DX009 (ip), vehicle: Klucel (hydroxypropylcellulose) (HPC)): 101 % of control | T/C (dose: 100.0 mg/kg/injection, schedule: Q01DX009 (ip), vehicle: Klucel (hydroxypropylcellulose) (HPC)): 97 % of control | T/C (dose: 200.0 mg/kg/injection, schedule: Q01DX009 (ip), vehicle: Klucel (hydroxypropylcellulose) (HPC)): 93 % of control

CCCCOC1OCN(CCCN(C)C)CC1(C)C (stereo not drawn)
T/C [1]: 108 % of control | T/C [2]: 122 % of control | T/C (dose: 200.0 mg/kg/injection, schedule: Q01DX009 (ip), vehicle: saline with Tween-80): 122 % of control

Cc1ccc2c(/C=C/c3ccc(N(C)C)cc3)ccnc2c1C
T/C (dose: 12.5 mg/kg/injection, schedule: Q01DX009 (ip), vehicle: saline with Tween-80): 123 % of control | T/C [1]: 150 % of control | T/C [2]: 99 % of control

Cc1ccc(C2=C(C#N)C(c3ccccc3)C(C#N)=C(N)O2)cc1 (stereo not drawn)
T/C [3]: 97 % of control | T/C [4]: 95 % of control

CSC(=S)c1c(O)ccc2ccccc12
T/C (dose: 100.0 mg/kg/injection, schedule: Q04DX002 (ip), vehicle: saline with Tween-80): 102 % of control

Cc1ccc(S(=O)C2=CCCO2)cc1 (stereo not drawn)
T/C (dose: 12.5 mg/kg/injection, schedule: Q01DX005 (ip), vehicle: Klucel (hydroxypropylcellulose) (HPC)): 100 % of control | T/C (dose: 25.0 mg/kg/injection, schedule: Q01DX005 (ip), vehicle: Klucel (hydroxypropylcellulose) (HPC)): 102 % of control | T/C [3]: 101 % of control and 108 % of control | T/C [4]: 119 % of control | T/C (dose: 200.0 mg/kg/injection, schedule: Q01DX005 (ip), vehicle: Klucel (hydroxypropylcellulose) (HPC)): 118 % of control
